# According to patent US20240240208A1, “COMPOSITIONS AND METHODS FOR INCREASING EFFICIENCY OF PRECISE EDITING REPAIR” (New York Genome Center, Inc., priority 2021, published 2024):
# Tested on: HEK293 DNA-PK KO cells
# Assay: HDR levels by GFP-to-BFP conversion assay in DNA-PK KO cells clone 22 treated with small molecule inhibitors
# Assay type: cell-based, human
# Conditions: 1 μM inhibitor added with Cas9, guide RNA and ssDNA encoding BFP; DNA-PK KO cells clone 22; drugs washed off 24 hours later
# Method: Eighteen targets were targeted with 38 drugs. […] Small molecule inhibitors were added in the media simultaneously with the introduction of Cas9, guide RNA and single-stranded DNA (ssDNA) encoding BFP. HDR levels were measured with the BFP-to-GFP assay. […] Precise repair levels are shown as a % of BFP+ cells over DMSO.
# DNA-PK KO cells were tested with the noted compounds at compounds at 10 μM, 5 μM, 1 μM, 0.5 μM, 0.1 μM, and 0.01 μM, as for FIGS. 4 and 6. HDR levels are shown as a % of BFP+ cells over DMSO 24 hours after drug treatment.
# (§1) To study the efficiency of HDR in human cells we used the green fluorescent protein (GFP) to blue fluorescent protein (BFP) pair, where conversion from GFP to BFP requires editing of 2 nucleotides. The CRISPR screens were performed on a K562 human cell line stably expressing a green fluorescent protein (GFP). GFP was targeted with Cas9, guide RNA targeting GFP, and a single stranded DNA (ssDNA) encoding BFP. Efficiency of HDR in cells carrying specific genetic perturbations (genetic inhibition or activation) were identified using fluorescence-activated cell sorting (FACS), followed by guide RNA recovery and quantification using next-generation sequencing (NGS).
# The small molecules were tested on DNA-PK knockout HET293 cells at concentrations of 10 μM or 1 μM. Eighteen targets were targeted with 38 drugs. […] Drug validations were performed in DNA-PK KO cells clone 22 treated with dimethyl sulfoxide (DMSO) or 1 or 10 μM of the indicated inhibitors. HDR levels were measured with the BFP-to-GFP assay. Small molecule inhibitors were added in the media simultaneously with the introduction of Cas9, guide RNA and single-stranded DNA (ssDNA) encoding BFP. The drugs were washed off 24 hours later.
# The compounds shown in FIG. 6 were further tested for dose dependent effects. The same cells as described above were treated with the noted compounds at compounds at 10 μM, 5 μM, 1 μM, 0.5 μM, 0.1 μM, and 0.01 μM. HDR levels are shown as a % of BFP+ cells over DMSO 24 hours after drug treatment (FIG. 7).
row,Structure (SMILES),HDR levels (% of BFP+ cells over DMSO)
1,Cc1cc2c(C(N)=O)cccc2n1-c1nc2c(c(NCc3ccccc3)n1)COCC2 [CB-5083],increased HDR levels
2,O=C(O)c1ccc2cc(-c3ccc(O)c(C45CC6CC(CC(C6)C4)C5)c3)ccc2c1 [CD437],increased HDR levels
3,Cc1nc(Nc2n[nH]c3c2CN(C(=O)N[C@H](CN(C)C)c2ccccc2)C3(C)C)c2sccc2n1 [PF-3758309],increased HDR levels
4,C=CC(=O)Nc1ccc(C(=O)Nc2n[nH]c3c2CN(C(=O)N[C@H](CN(C)C)c2ccccc2)C3(C)C)cc1 [YKL-5-124],increased HDR levels
5,COC(=O)[C@H](CCSC)NC(=O)c1ccc(NC[C@@H](N)CS)cc1-c1ccccc1.Cl [FTI 277 HCl],increased HDR levels
6,O=C(O)Cn1c2c(c3cc(F)ccc31)CN(C(=O)c1cccc3ccccc13)CC2 [Setipiprant],increased HDR levels
7,COc1cc(-c2cn(C)c(=O)c3cnccc23)cc(OC)c1CN(C)C [BI-7273],increased HDR levels
8,O=C(O)/C=C/c1ccc(-c2ccc(O)c(C34CC5CC(CC(C5)C3)C4)c2)cc1 [ST1926],increased HDR levels
9,O=C(/C=C\n1cnc(-c2cc(C(F)(F)F)cc(C(F)(F)F)c2)n1)N1CC(F)(F)C1 [KPT-276],increased HDR levels
10,COc1cc(Nc2ncc3c(n2)-c2ccc(Cl)cc2C(c2c(F)cccc2OC)=NC3)ccc1C(=O)O [Alisertib],increased HDR levels
11,N#Cc1ccc(COC[C@H]2O[C@@H](n3c(NCc4ccc(Cl)c(Cl)c4)nc4c(N)ncnc43)[C@H](O)[C@@H]2O)cc1 [VER155008],increased HDR levels
12,"NC(=O)/C(=C/n1cnc(-c2cc(C(F)(F)F)cc(C(F)(F)F)c2)n1)c1cncnc1 [Eltanexor (KPT-8602), Eltanexor]",increased HDR levels
13,c1ccc(CNc2nc(NCc3ccccc3)c3ccccc3n2)cc1 [DBeQ],increased HDR levels
14,CCn1cc(-c2cccc(C(F)(F)F)c2)c2sc(C(=N)NC3CCS(=O)(=O)CC3)cc2c1=O [I-BRD9],increased HDR levels
15,Nc1nccc(-c2c(-c3ccc(F)cc3)ncn2C2CCCCC2)n1 [PF-670462],increased HDR levels
16,CO[C@@H]1[C@@H](OC(N)=O)[C@@H](O)[C@H](Oc2ccc3c(O)c(NC(=O)c4ccc(O)c(CC=C(C)C)c4)c(=O)oc3c2C)OC1(C)C [Novobiocin],increased HDR levels
17,Cc1cc(OCc2nnc(SC3CCCC3)n2-c2cccnc2)ccc1-c1ccc(S(C)(=O)=O)cc1 [NMS-873],increased HDR levels
18,Cc1ncc(CCCN(C)C)cc1Nc1ncc2c(n1)-c1ccc(C(F)(F)F)cc1NC(=S)C2 [MLN0905],increased HDR levels
19,CC(=O)Nc1nc(-c2cccc(NS(=O)(=O)c3cccc4c(N(C)C)cccc34)c2)cs1 [HA15],increased HDR levels
20,Nc1ncnc2c1c(COc1cccc(Cl)c1)nn2C1CCOCC1 [PF 4800567],increased HDR levels

# Same assay, conditions: 10, 5, 1, 0.5, 0.1 and 0.01 μM; DNA-PK KO cells; 24 hours after drug treatment
row,Structure (SMILES),BFP+ increase over DMSO (dose dependent effect on HDR)
1,O=C(/C=C\n1cnc(-c2cc(C(F)(F)F)cc(C(F)(F)F)c2)n1)N1CC(F)(F)C1 [KPT-276],promote HDR at low concentration
2,COc1ccc(CCNCc2ccc(OCc3ccc(Cl)nc3)c(OC)c2)cc1OC.Cl [SBE 13 HCl],dose-dependent increase in HDR

# Tested on: HEK293 DNA-PK KO cells
# Assay: MTT cytotoxicity assay after 24 hours drug treatment
# Assay type: cell-based, human
# Conditions: 10, 5, 1, 0.5, 0.1 and 0.01 μM
# Method: FIG. 8 is a heat plot showing cytotoxicity after drug treatment. HEK293 DNA-PK KO cells were treated with the noted compounds at 10 μM, 5 μM, 1 μM, 0.5 μM, 0.1 μM, and 0.01 μM in triplicate. After 24 hours an MTT assay was performed.
# The same compounds were also tested for cytotoxicity at 10 μM, 5 μM, 1 μM, 0.5 μM, 0.1 μM, and 0.01 μM.
row,Structure (SMILES),"cytotoxicity over DMSO (MTT, viable cells)"
1,O=C(/C=C\n1cnc(-c2cc(C(F)(F)F)cc(C(F)(F)F)c2)n1)N1CC(F)(F)C1 [KPT-276],toxic at high concentration
2,COc1ccc(CCNCc2ccc(OCc3ccc(Cl)nc3)c(OC)c2)cc1OC.Cl [SBE 13 HCl],low toxicity

# Tested on: human K562 PRKDC−/− cells
# Assay: Precise repair (% BFP conversion) after SpCas9 RNP, EGFP-targeting sgRNA and EBFP ssODN nucleofection
# Assay type: cell-based
# Conditions: 1 μM, DMSO control 56%
# Method: To investigate the effect of combinatorial inhibition using a DNA-PK inhibitor and another inhibitor on HDR gene editing rates, human K562 PRKDC−/− cells (a DNA Knock Out cell line) were nucleofected with SpCas9 RNPs with an EGFP-targeting sgRNA and EBFP ssODN and then incubated with 1 μM (micro molar) concentration ST1926 (an inhibitor of POLA1) or DMSO treated (control). Gene editing rates are expressed in percentages and classified as % precise repair (% BFP conversion). The combination of ST1926 treatment in PRKDC-null human cells boosted precise editing from 56% to 73%.
row,Structure (SMILES),% precise repair (% BFP conversion)
1,O=C(O)/C=C/c1ccc(-c2ccc(O)c(C34CC5CC(CC(C5)C3)C4)c2)cc1 [ST1926],73%

# Tested on: RFC5, TUBA1B, NEDD8, LIG4, POLQ and RAD51 knock-out lines
# Assay: HDR levels by cell sorting in gene knock out cell lines treated with DNA-PK inhibitor
# Assay type: cell-based, human
# Conditions: 2 μM DNA-PK inhibitor in RFC5, TUBA1B
# Method: Knock out cell lines of the indicated genes were treated with 2 μM of DNA-PK inhibitor. HDR levels were determined by cell sorting.
# The inventors identified regulators of homologous directed repair (HDR) that synergize with inhibition of non-homologous end-joining (NHEJ) and further increase HDR levels in human cells. The inventors targeted all of the 20,000 genes in the human genome using a pair of CRISPR-based screens to identify genes that, upon loss (knock-out) or gain (overexpression), increase precise gene repair. Using a CRISPR inhibition screen, a ranked list of the effect of loss of every human gene on precise gene repair. In a CRISPR activation screen, we produced a ranked list of the effect of gain of every human gene on precise gene repair. Combinatorial effects of multiple gene/drug perturbations on boosting precise gene repair were also examined. […]
# as §1, with “The CRISPR screens were performed on a K562 human cell line stably expressing a green fluorescent protein (GFP). GFP was targeted with Cas9, guide RNA targeting GFP, and a single stranded DNA (ssDNA) encoding BFP.” left out
# HDR levels were determined by cell sorting.
row,Structure (SMILES),HDR levels
1,O=c1cc(N2CCOCC2)oc2c(-c3cccc4c3sc3ccccc34)cccc12 [NU7441],significant increase in the HDR levels
